These results are taken from PMC5707507 (2015).

As a reminder, the ΔTm is the change in melting temperature against a reference sample.

The test system of assay [1] is ssDNA (DNA, single strand) CCAGTTCGTAGTAACCC
Put plainly: luminescence response. The conditions noted are these: none stated in assay buffer; 10 mM Tris-HCl, pH 7.2; 1.5 µM complex; 5 µM DNA highest tested.

Assay [2] concerns F21T (DNA, G4) GGGTTAGGGTTAGGGTTAGGG
Put plainly: FRET melting. The conditions noted are these: 100 mM K+; potassium cacodylate, pH 7.0; 5 µM compound; 0.2 µM DNA.

For assay [3], the system named is ds26 (DNA, duplex) CAATCGGATCGAATTCGATCCGATTG
Put plainly: G4-FID, thiazole orange displacement. The conditions noted are these: 100 mM KCl; 10 mM Tris-HCl, pH 7.2; 0.75 µM thiazole orange; <15% displaced at highest concentration 1.25 µM.

The subject of assay [4] is c-myc (DNA, G4) TGAGGGTGGGTAGGGTGGGTAA
Put plainly: G4-FID, thiazole orange displacement. The settings on record: 100 mM KCl; 10 mM Tris-HCl, pH 7.2; 0.25 µM DNA; 0.50 µM thiazole orange displaced.

Assay [5] concerns F10T (DNA, hairpin, hexaethylene glycol (HEG) linker between 8 and 9) TATAGCTATATAGCTATAT
The assay is described as follows: FRET melting. The settings on record: 10 mM Li+; lithium cacodylate, pH 7.4; 5 µM compound; 0.2 µM DNA.

Assay [6] relates to c-myc (DNA, G4) TGAGGGTGGGTAGGGTGGGTAA
The assay is described as follows: luminescence response. The settings on record: 20 mM KCl (annealing); 10 mM Tris-HCl, pH 7.2; 1.5 µM complex; 5 µM DNA; intensity ratio 7.5 over ds26, 5.5 over ssDNA.

For the molecule `Cc1ccc(-c2ccc(C)cn2)nc1.[Ir+3].[c-]1ccccc1-c1nc2ccccc2[nH]1.[c-]1ccccc1-c1nc2ccccc2[nH]1`, the binding result in assay [1] is reported as “no”. The thermal shift (ΔTm) in assay [2] was ~ 6.0 °C; in assay [5], 2 °C. This molecule also returned a DC50 in assay [3] greater than 1250 nM. This molecule yielded a G4DC50 in assay [4] of 0.85 µM.

In the case of `Cc1ccc(-c2ccc(C)cn2)nc1.[Ir+3].[c-]1ccccc1-c1nc2ccccc2s1.[c-]1ccccc1-c1nc2ccccc2s1`, in assay [6], the binding entry is listed as “yes”.
